Measurements from patent publication US8192717B2, “Composition for diagnosing amyloid-related diseases” (Nagasaki University, priority 2004, dated 2012).
Values belong to the compound of their own block, whether it stands above or below them.

Assay: Radioactivity distribution in mouse body after intravenous administration of radioiodine labeled forms
Conditions: mouse, intravenous administration, mean (SD) of 3 to 5 mice
Protocol: Thereafter, 100 μl (0.5 to 1 μCi) of each labeled form was intravenously administered to each group consisting of three to five 5-week-old ddY male mice (25 to 30 g). 2, 10, 30, and 60 minutes after the intravenous administration, such mice were decapitated, and blood was collected. Thereafter, organs were excised, and the weight and radioactivity thereof were then measured.

SMILES: CNc1ccc(-c2cc(=O)c3cc([125I])ccc3o2)cc1 [[125I]Compound 10]
Distribution of radioactivity, Blood (2 min after administration): 1.89 (0.28) % ID/g
Distribution of radioactivity, Blood (10 min after administration): 1.39 (0.10) % ID/g
Distribution of radioactivity, Blood (30 min after administration): 1.34 (0.07) % ID/g
Distribution of radioactivity, Blood (60 min after administration): 1.50 (0.09) % ID/g
Distribution of radioactivity, Brain (2 min after administration): 4.12 (0.15) % ID/g
Distribution of radioactivity, Brain (10 min after administration): 3.68 (0.18) % ID/g
Distribution of radioactivity, Brain (30 min after administration): 1.84 (0.12) % ID/g
Distribution of radioactivity, Brain (60 min after administration): 1.19 (0.04) % ID/g
Distribution of radioactivity, Heart (2 min after administration): 4.87 (0.66) % ID/g
Distribution of radioactivity, Heart (10 min after administration): 2.66 (0.12) % ID/g
Distribution of radioactivity, Heart (30 min after administration): 1.67 (0.14) % ID/g
Distribution of radioactivity, Heart (60 min after administration): 1.28 (0.12) % ID/g
Distribution of radioactivity, Intestine (2 min after administration): 3.10 (0.61) % ID/g
Distribution of radioactivity, Intestine (10 min after administration): 7.91 (1.05) % ID/g
Distribution of radioactivity, Intestine (30 min after administration): 12.84 (1.18) % ID/g
Distribution of radioactivity, Intestine (60 min after administration): 21.48 (3.17) % ID/g
Distribution of radioactivity, Kidney (2 min after administration): 8.13 (1.28) % ID/g
Distribution of radioactivity, Kidney (10 min after administration): 5.21 (0.44) % ID/g
Distribution of radioactivity, Kidney (30 min after administration): 3.85 (0.33) % ID/g
Distribution of radioactivity, Kidney (60 min after administration): 3.05 (0.25) % ID/g
Distribution of radioactivity, Liver (2 min after administration): 16.28 (0.90) % ID/g
Distribution of radioactivity, Liver (10 min after administration): 25.28 (0.31) % ID/g
Distribution of radioactivity, Liver (30 min after administration): 18.61 (1.81) % ID/g
Distribution of radioactivity, Liver (60 min after administration): 15.14 (0.89) % ID/g
Distribution of radioactivity, Spleen (2 min after administration): 2.57 (1.54) % ID/g
Distribution of radioactivity, Spleen (10 min after administration): 2.31 (0.01) % ID/g
Distribution of radioactivity, Spleen (30 min after administration): 1.76 (0.23) % ID/g
Distribution of radioactivity, Spleen (60 min after administration): 1.52 (0.29) % ID/g

SMILES: CN(C)c1ccc(-c2cc(=O)c3cc([125I])ccc3o2)cc1 [[125I]Compound 11]
Distribution of radioactivity, Blood (2 min after administration): 1.87 (0.18) % ID/g
Distribution of radioactivity, Blood (10 min after administration): 1.07 (0.08) % ID/g
Distribution of radioactivity, Blood (30 min after administration): 1.20 (0.15) % ID/g
Distribution of radioactivity, Blood (60 min after administration): 1.15 (0.16) % ID/g
Distribution of radioactivity, Brain (2 min after administration): 3.22 (0.15) % ID/g
Distribution of radioactivity, Brain (10 min after administration): 3.61 (0.60) % ID/g
Distribution of radioactivity, Brain (30 min after administration): 1.89 (0.21) % ID/g
Distribution of radioactivity, Brain (60 min after administration): 0.99 (0.10) % ID/g
Distribution of radioactivity, Heart (2 min after administration): 5.63 (0.80) % ID/g
Distribution of radioactivity, Heart (10 min after administration): 2.47 (0.14) % ID/g
Distribution of radioactivity, Heart (30 min after administration): 1.69 (0.06) % ID/g
Distribution of radioactivity, Heart (60 min after administration): 1.07 (0.17) % ID/g
Distribution of radioactivity, Intestine (2 min after administration): 2.24 (0.24) % ID/g
Distribution of radioactivity, Intestine (10 min after administration): 6.56 (0.83) % ID/g
Distribution of radioactivity, Intestine (30 min after administration): 12.97 (1.15) % ID/g
Distribution of radioactivity, Intestine (60 min after administration): 18.64 (2.05) % ID/g
Distribution of radioactivity, Kidney (2 min after administration): 8.33 (1.47) % ID/g
Distribution of radioactivity, Kidney (10 min after administration): 4.31 (0.28) % ID/g
Distribution of radioactivity, Kidney (30 min after administration): 3.40 (0.31) % ID/g
Distribution of radioactivity, Kidney (60 min after administration): 2.32 (0.45) % ID/g
Distribution of radioactivity, Liver (2 min after administration): 15.41 (0.98) % ID/g
Distribution of radioactivity, Liver (10 min after administration): 21.85 (2.14) % ID/g
Distribution of radioactivity, Liver (30 min after administration): 15.71 (0.96) % ID/g
Distribution of radioactivity, Liver (60 min after administration): 12.40 (2.38) % ID/g
Distribution of radioactivity, Spleen (2 min after administration): 2.72 (0.20) % ID/g
Distribution of radioactivity, Spleen (10 min after administration): 1.92 (0.33) % ID/g
Distribution of radioactivity, Spleen (30 min after administration): 1.58 (0.31) % ID/g
Distribution of radioactivity, Spleen (60 min after administration): 1.18 (0.17) % ID/g

SMILES: COc1ccc(-c2cc(=O)c3cc([125I])ccc3o2)cc1 [[125I]Compound 19]
Distribution of radioactivity, Blood (2 min after administration): 1.87 (0.21) % ID/g
Distribution of radioactivity, Blood (10 min after administration): 1.19 (0.17) % ID/g
Distribution of radioactivity, Blood (30 min after administration): 0.40 (0.01) % ID/g
Distribution of radioactivity, Blood (60 min after administration): 0.23 (0.09) % ID/g
Distribution of radioactivity, Brain (2 min after administration): 4.00 (0.18) % ID/g
Distribution of radioactivity, Brain (10 min after administration): 2.36 (0.33) % ID/g
Distribution of radioactivity, Brain (30 min after administration): 0.51 (0.07) % ID/g
Distribution of radioactivity, Brain (60 min after administration): 0.17 (0.05) % ID/g
Distribution of radioactivity, Heart (2 min after administration): 4.98 (0.41) % ID/g
Distribution of radioactivity, Heart (10 min after administration): 2.25 (0.40) % ID/g
Distribution of radioactivity, Heart (30 min after administration): 0.84 (0.14) % ID/g
Distribution of radioactivity, Heart (60 min after administration): 0.47 (0.22) % ID/g
Distribution of radioactivity, Intestine (2 min after administration): 3.52 (0.29) % ID/g
Distribution of radioactivity, Intestine (10 min after administration): 14.39 (0.80) % ID/g
Distribution of radioactivity, Intestine (30 min after administration): 22.51 (1.11) % ID/g
Distribution of radioactivity, Intestine (60 min after administration): 30.05 (3.61) % ID/g
Distribution of radioactivity, Kidney (2 min after administration): 7.99 (1.08) % ID/g
Distribution of radioactivity, Kidney (10 min after administration): 6.30 (1.02) % ID/g
Distribution of radioactivity, Kidney (30 min after administration): 4.51 (1.59) % ID/g
Distribution of radioactivity, Kidney (60 min after administration): 1.46 (1.12) % ID/g
Distribution of radioactivity, Liver (2 min after administration): 8.96 (1.48) % ID/g
Distribution of radioactivity, Liver (10 min after administration): 9.01 (0.97) % ID/g
Distribution of radioactivity, Liver (30 min after administration): 3.75 (0.47) % ID/g
Distribution of radioactivity, Liver (60 min after administration): 1.88 (0.61) % ID/g
Distribution of radioactivity, Spleen (2 min after administration): 2.70 (0.08) % ID/g
Distribution of radioactivity, Spleen (10 min after administration): 1.38 (0.37) % ID/g
Distribution of radioactivity, Spleen (30 min after administration): 0.55 (0.30) % ID/g
Distribution of radioactivity, Spleen (60 min after administration): 3.67 (5.89) % ID/g

Results, then the compound that gave them:

Distribution of radioactivity, Blood (2 min after administration): 2.77 (0.43) % ID/g
Distribution of radioactivity, Blood (10 min after administration): 1.58 (0.18) % ID/g
Distribution of radioactivity, Blood (30 min after administration): 0.66 (0.03) % ID/g
Distribution of radioactivity, Blood (60 min after administration): 0.20 (0.02) % ID/g
Distribution of radioactivity, Brain (2 min after administration): 3.31 (0.32) % ID/g
Distribution of radioactivity, Brain (10 min after administration): 1.90 (0.07) % ID/g
Distribution of radioactivity, Brain (30 min after administration): 0.52 (0.03) % ID/g
Distribution of radioactivity, Brain (60 min after administration): 0.08 (0.02) % ID/g
Distribution of radioactivity, Heart (2 min after administration): 5.51 (0.71) % ID/g
Distribution of radioactivity, Heart (10 min after administration): 1.60 (0.18) % ID/g
Distribution of radioactivity, Heart (30 min after administration): 0.53 (0.04) % ID/g
Distribution of radioactivity, Heart (60 min after administration): 0.12 (0.02) % ID/g
Distribution of radioactivity, Intestine (2 min after administration): 3.12 (0.37) % ID/g
Distribution of radioactivity, Intestine (10 min after administration): 11.26 (0.63) % ID/g
Distribution of radioactivity, Intestine (30 min after administration): 22.01 (1.34) % ID/g
Distribution of radioactivity, Intestine (60 min after administration): 27.28 (0.48) % ID/g
Distribution of radioactivity, Kidney (2 min after administration): 14.79 (2.59) % ID/g
Distribution of radioactivity, Kidney (10 min after administration): 15.11 (2.00) % ID/g
Distribution of radioactivity, Kidney (30 min after administration): 6.45 (0.84) % ID/g
Distribution of radioactivity, Kidney (60 min after administration): 1.66 (0.62) % ID/g
Distribution of radioactivity, Liver (2 min after administration): 9.77 (1.89) % ID/g
Distribution of radioactivity, Liver (10 min after administration): 8.24 (0.50) % ID/g
Distribution of radioactivity, Liver (30 min after administration): 6.80 (0.86) % ID/g
Distribution of radioactivity, Liver (60 min after administration): 4.78 (1.09) % ID/g
Distribution of radioactivity, Spleen (2 min after administration): 3.92 (1.18) % ID/g
Distribution of radioactivity, Spleen (10 min after administration): 1.55 (0.15) % ID/g
Distribution of radioactivity, Spleen (30 min after administration): 0.56 (0.13) % ID/g
Distribution of radioactivity, Spleen (60 min after administration): 0.17 (0.06) % ID/g
SMILES: O=c1cc(-c2ccc(O)cc2)oc2ccc([125I])cc12 [[125I]Compound 20]

Distribution of radioactivity, Blood (2 min after administration): 4.90 (0.52) % ID/g
Distribution of radioactivity, Blood (10 min after administration): 3.80 (0.91) % ID/g
Distribution of radioactivity, Blood (30 min after administration): 1.84 (0.31) % ID/g
Distribution of radioactivity, Blood (60 min after administration): 1.15 (0.44) % ID/g
Distribution of radioactivity, Brain (2 min after administration): 2.52 (0.20) % ID/g
Distribution of radioactivity, Brain (10 min after administration): 1.28 (0.17) % ID/g
Distribution of radioactivity, Brain (30 min after administration): 0.40 (0.11) % ID/g
Distribution of radioactivity, Brain (60 min after administration): 0.35 (0.05) % ID/g
Distribution of radioactivity, Heart (2 min after administration): 5.58 (0.99) % ID/g
Distribution of radioactivity, Heart (10 min after administration): 2.88 (1.02) % ID/g
Distribution of radioactivity, Heart (30 min after administration): 1.44 (0.34) % ID/g
Distribution of radioactivity, Heart (60 min after administration): 1.38 (0.34) % ID/g
Distribution of radioactivity, Intestine (2 min after administration): 2.50 (0.31) % ID/g
Distribution of radioactivity, Intestine (10 min after administration): 10.52 (1.82) % ID/g
Distribution of radioactivity, Intestine (30 min after administration): 20.60 (6.13) % ID/g
Distribution of radioactivity, Intestine (60 min after administration): 29.31 (3.26) % ID/g
Distribution of radioactivity, Kidney (2 min after administration): 11.99 (3.60) % ID/g
Distribution of radioactivity, Kidney (10 min after administration): 9.16 (2.76) % ID/g
Distribution of radioactivity, Kidney (30 min after administration): 5.00 (2.27) % ID/g
Distribution of radioactivity, Kidney (60 min after administration): 4.31 (0.81) % ID/g
Distribution of radioactivity, Liver (2 min after administration): 15.71 (1.27) % ID/g
Distribution of radioactivity, Liver (10 min after administration): 18.55 (2.68) % ID/g
Distribution of radioactivity, Liver (30 min after administration): 7.67 (1.68) % ID/g
Distribution of radioactivity, Liver (60 min after administration): 4.05 (0.61) % ID/g
Distribution of radioactivity, Spleen (2 min after administration): 2.57 (0.42) % ID/g
Distribution of radioactivity, Spleen (10 min after administration): 1.80 (0.30) % ID/g
Distribution of radioactivity, Spleen (30 min after administration): 1.03 (0.04) % ID/g
Distribution of radioactivity, Spleen (60 min after administration): 0.88 (0.15) % ID/g
SMILES: COc1cc(/C=C/C(=O)c2cccc([125I])c2)ccc1O [[125I]Compound 31]
